In PubChem BioAssay (NCI):
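Tested at 5 concentrations; 48 h exposure; 96-well plates; endpoints linearly interpolated, else capped at highest concentration. Definition used: TGI = concentration required for complete inhibition of growth.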

What was measured:
Experiment in all cases: NCI tumour cell line growth inhibition, 48 h
COLO 205 colon = tested on: COLO 205 colon
SK-MEL-5 melanoma = tested on: SK-MEL-5 melanoma
MALME-3M melanoma = tested on: MALME-3M melanoma
NCI-H460 lung = tested on: NCI-H460 lung
LOX IMVI melanoma = tested on: LOX IMVI melanoma
HL-60(TB) leukemia = tested on: HL-60(TB) leukemia
OVCAR-3 ovarian = tested on: OVCAR-3 ovarian
SF-268 CNS = tested on: SF-268 CNS
NCI-H522 lung = tested on: NCI-H522 lung
SN12C renal = tested on: SN12C renal
OVCAR-8 ovarian = tested on: OVCAR-8 ovarian
SNB-75 CNS = tested on: SNB-75 CNS
LXFL 529 NSCLC = tested on: LXFL 529 NSCLC
UO-31 renal = tested on: UO-31 renal
KM12 colon = tested on: KM12 colon
DMS 273 small cell lung = tested on: DMS 273 small cell lung
SN12K1 renal = tested on: SN12K1 renal
RXF 393 renal = tested on: RXF 393 renal
MCF7 breast = tested on: MCF7 breast
P388/ADR leukemia = tested on: P388/ADR leukemia

SMILES | TGI (COLO 205 colon) [µM] | TGI (SK-MEL-5 melanoma) [µM] | TGI (MALME-3M melanoma) [µM] | TGI (NCI-H460 lung) [µM] | TGI (LOX IMVI melanoma) [µM] | TGI (HL-60(TB) leukemia) [µM] | TGI (OVCAR-3 ovarian) [µM] | TGI (SF-268 CNS) [µM] | TGI (NCI-H522 lung) [µM] | TGI (SN12C renal) [µM] | TGI (OVCAR-8 ovarian) [µM] | TGI (SNB-75 CNS) [µM] | TGI (LXFL 529 NSCLC) [µM] | TGI (UO-31 renal) [µM] | TGI (KM12 colon) [µM] | TGI (DMS 273 small cell lung) [µM] | TGI (SN12K1 renal) [µM] | TGI (RXF 393 renal) [µM] | TGI (MCF7 breast) [µM] | TGI (P388/ADR leukemia) [µM]
COc1ccc(/C(Cl)=C(\C=O)c2ccc(OC)c(OC)c2)cc1 | > 100 | > 100 | > 100 | > 100 | > 100 | > 100 | > 100 | > 100 | 85.3 | > 100 | > 100 | 58.7 | > 100 | > 100 |  |  |  |  |  | 
O=C1NP23(OCCO2)Oc2ccccc2C3(C(F)(F)F)O1 (configuration not stated) |  | > 100 | > 100 | > 100 | > 100 | > 100 | > 100 | > 100 | > 100 | > 100 | > 100 | > 100 | > 100 |  | > 100 | > 100 |  |  |  | 
COc1cc(N=Nc2cccc(S(=O)(=O)O)c2)ccc1N=Nc1ccc(/C=C/c2ccc(-n3on3-c3ccc(/C=C/c4ccc(N=Nc5ccc(N=Nc6cccc(S(=O)(=O)O)c6)cc5OC)cc4S(=O)(=O)O)c(S(=O)(=O)O)c3)cc2S(=O)(=O)O)c(S(=O)(=O)O)c1 | > 100 | > 100 | > 100 | > 100 | > 100 | > 100 | > 100 | > 100 | > 100 | > 100 | > 100 | > 100 |  | > 100 | > 100 | > 100 | > 100 | > 100 | > 100 | > 100
N#CC(OC1OC(COC2OC(CO)C(O)C(O)C2O)C(O)C(O)C1O)c1ccccc1 (configuration not stated) | > 225 | > 225 | > 225 | > 225 | > 225 | > 225 | > 225 | > 225 | > 225 | > 225 | > 225 | > 225 |  | > 225 | > 225 | > 225 | > 225 | > 225 | > 225 | > 225
CCOP(=O)(COCCn1ncc(=O)[nH]c1=O)OCC | > 100 | > 100 | > 100 | > 100 | > 100 | > 100 | > 100 | > 100 | > 100 | > 100 | > 100 | > 100 |  | > 100 | > 100 |  |  | > 100 | > 100 | 
